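Each compound was tested at five concentrations against cells in 96-well plates for 48 hours. TGI marks complete inhibition of growth.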
system: OVCAR-5 ovarian; assay: NCI tumour cell line growth inhibition, 48 h

Row | SMILES | TGI
1 | CCCCCCCCCCCCCCCCCC(CCCCCCCCCCCCCCCCC)OP(=O)(O)O | > 100 µM
2 | O=C(COc1ccc(Br)cc1Br)N1N=C(c2ccc([N+](=O)[O-])o2)CC1(O)c1ccccc1 (stereo not given) | 98.2 µM
3 | CNS(=O)(=O)NNS(=O)(=O)c1ccc2ccccc2c1 | > 100 µM
4 | CCOC(=O)CN1C(=O)c2cccc3cc([N+](=O)[O-])cc(c23)C1=O | 28.9 µM

system: OVCAR-8 ovarian; assay: NCI tumour cell line growth inhibition, 48 h

Row | SMILES | TGI
5 | CCN(CC)CCC(=O)Nc1ccc2c(c1)C(=O)c1ccc(NC(=O)CCN(CC)CC)cc1C2=O | 18 µM
6 | COc1ccc(C(=O)C(C(=O)CCC(=O)Nc2ccc(C)c(C)c2)c2ccc(OC)cc2)cc1 (stereo not given) | > 100 µM
7 | COc1cc2c(cc1OC)-c1c3cc(O)ccc3nn[n+]1CC2 | > 100 µM
8 | CCCCCCCCCCCCCCCCCC(CCCCCCCCCCCCCCCCC)OP(=O)(O)O | > 100 µM
9 | O=C(COc1ccc(Br)cc1Br)N1N=C(c2ccc([N+](=O)[O-])o2)CC1(O)c1ccccc1 (stereo not given) | 36.7 µM
10 | CNS(=O)(=O)NNS(=O)(=O)c1ccc2ccccc2c1 | > 100 µM
11 | CCOC(=O)CN1C(=O)c2cccc3cc([N+](=O)[O-])cc(c23)C1=O | 3.43 µM
12 | CC(N)Cc1ccc(C(=O)Cl)cc1 (stereo not given) | > 100 µM

system: RPMI-8226 leukemia; assay: NCI tumour cell line growth inhibition, 48 h

Row | SMILES | TGI
13 | CCN(CC)CCC(=O)Nc1ccc2c(c1)C(=O)c1ccc(NC(=O)CCN(CC)CC)cc1C2=O | 19.9 µM
14 | COc1cc2c(cc1OC)-c1c3cc(O)ccc3nn[n+]1CC2 | > 100 µM
15 | CCCCCCCCCCCCCCCCCC(CCCCCCCCCCCCCCCCC)OP(=O)(O)O | > 100 µM
16 | O=C(COc1ccc(Br)cc1Br)N1N=C(c2ccc([N+](=O)[O-])o2)CC1(O)c1ccccc1 (stereo not given) | 8.96 µM
17 | CNS(=O)(=O)NNS(=O)(=O)c1ccc2ccccc2c1 | > 100 µM
18 | CC(N)Cc1ccc(C(=O)Cl)cc1 (stereo not given) | > 100 µM

system: RXF 393 renal; assay: NCI tumour cell line growth inhibition, 48 h

Row | SMILES | TGI
19 | CCN(CC)CCC(=O)Nc1ccc2c(c1)C(=O)c1ccc(NC(=O)CCN(CC)CC)cc1C2=O | 9.27 µM
20 | COc1cc2c(cc1OC)-c1c3cc(O)ccc3nn[n+]1CC2 | > 100 µM
21 | CCCCCCCCCCCCCCCCCC(CCCCCCCCCCCCCCCCC)OP(=O)(O)O | > 100 µM
22 | O=C(COc1ccc(Br)cc1Br)N1N=C(c2ccc([N+](=O)[O-])o2)CC1(O)c1ccccc1 (stereo not given) | 15.7 µM
23 | CCOC(=O)CN1C(=O)c2cccc3cc([N+](=O)[O-])cc(c23)C1=O | 3.89 µM
24 | CC(N)Cc1ccc(C(=O)Cl)cc1 (stereo not given) | > 100 µM

system: RXF-631 renal; assay: NCI tumour cell line growth inhibition, 48 h

Row | SMILES | TGI
25 | CC(N)Cc1ccc(C(=O)Cl)cc1 (stereo not given) | > 100 µM

system: SF-268 CNS; assay: NCI tumour cell line growth inhibition, 48 h

Row | SMILES | TGI
26 | CCN(CC)CCC(=O)Nc1ccc2c(c1)C(=O)c1ccc(NC(=O)CCN(CC)CC)cc1C2=O | 18.9 µM
27 | COc1cc2c(cc1OC)-c1c3cc(O)ccc3nn[n+]1CC2 | > 100 µM
28 | CCCCCCCCCCCCCCCCCC(CCCCCCCCCCCCCCCCC)OP(=O)(O)O | > 100 µM
29 | O=C(COc1ccc(Br)cc1Br)N1N=C(c2ccc([N+](=O)[O-])o2)CC1(O)c1ccccc1 (stereo not given) | 36 µM
30 | CNS(=O)(=O)NNS(=O)(=O)c1ccc2ccccc2c1 | > 100 µM
31 | CCOC(=O)CN1C(=O)c2cccc3cc([N+](=O)[O-])cc(c23)C1=O | 11.1 µM
32 | CC(N)Cc1ccc(C(=O)Cl)cc1 (stereo not given) | > 100 µM

system: SF-295 CNS; assay: NCI tumour cell line growth inhibition, 48 h

Row | SMILES | TGI
33 | CCN(CC)CCC(=O)Nc1ccc2c(c1)C(=O)c1ccc(NC(=O)CCN(CC)CC)cc1C2=O | 24 µM
34 | COc1ccc(C(=O)C(C(=O)CCC(=O)Nc2ccc(C)c(C)c2)c2ccc(OC)cc2)cc1 (stereo not given) | > 100 µM
35 | COc1cc2c(cc1OC)-c1c3cc(O)ccc3nn[n+]1CC2 | > 100 µM
36 | CCCCCCCCCCCCCCCCCC(CCCCCCCCCCCCCCCCC)OP(=O)(O)O | > 100 µM
37 | O=C(COc1ccc(Br)cc1Br)N1N=C(c2ccc([N+](=O)[O-])o2)CC1(O)c1ccccc1 (stereo not given) | 53.7 µM
38 | CNS(=O)(=O)NNS(=O)(=O)c1ccc2ccccc2c1 | > 100 µM
39 | CC(N)Cc1ccc(C(=O)Cl)cc1 (stereo not given) | > 100 µM

system: SF-539 CNS; assay: NCI tumour cell line growth inhibition, 48 h

Row | SMILES | TGI
40 | CCN(CC)CCC(=O)Nc1ccc2c(c1)C(=O)c1ccc(NC(=O)CCN(CC)CC)cc1C2=O | 15.3 µM
41 | COc1cc2c(cc1OC)-c1c3cc(O)ccc3nn[n+]1CC2 | > 100 µM
42 | CNS(=O)(=O)NNS(=O)(=O)c1ccc2ccccc2c1 | > 100 µM
43 | CCOC(=O)CN1C(=O)c2cccc3cc([N+](=O)[O-])cc(c23)C1=O | 16 µM
44 | CC(N)Cc1ccc(C(=O)Cl)cc1 (stereo not given) | > 100 µM

system: SK-MEL-2 melanoma; assay: NCI tumour cell line growth inhibition, 48 h

Row | SMILES | TGI
45 | CCN(CC)CCC(=O)Nc1ccc2c(c1)C(=O)c1ccc(NC(=O)CCN(CC)CC)cc1C2=O | 19 µM
46 | COc1ccc(C(=O)C(C(=O)CCC(=O)Nc2ccc(C)c(C)c2)c2ccc(OC)cc2)cc1 (stereo not given) | > 100 µM
47 | CCCCCCCCCCCCCCCCCC(CCCCCCCCCCCCCCCCC)OP(=O)(O)O | > 100 µM
48 | O=C(COc1ccc(Br)cc1Br)N1N=C(c2ccc([N+](=O)[O-])o2)CC1(O)c1ccccc1 (stereo not given) | 31.3 µM
49 | CNS(=O)(=O)NNS(=O)(=O)c1ccc2ccccc2c1 | > 100 µM
50 | CCOC(=O)CN1C(=O)c2cccc3cc([N+](=O)[O-])cc(c23)C1=O | 2.87 µM
